The values that follow are results of earlier work, collected in article PMC7721897, “Metabolism and pharmacokinetics of a novel polyphenol fatty acid ester phloridzin docosahexaenoate in Balb/c female mice” (Scientific Reports, 2020).

In the data set the test system is human plasma proteins. Conditions: ref Boulton et al.; cited from earlier work.

Regarding `O=c1c(O)c(-c2ccc(O)c(O)c2)oc2cc(O)cc(O)c12` [quercetin], the “bound to human plasma proteins” value was 99.1% and the “freely available in the plasma” value is on record as 0.9%.
